From patent publication US8410141B2, “Insecticidal arylpyrrolines” (Bayer Cropscience AG, priority 2009, dated 2013)

Key:
Type in all cases: in vivo
[1] = system: Two-Spotted Spider Mite (Tetranychus urticae); assay: Test against two-spotted spider mite (Tetranychus urticae), spray; details: 100 ppm; sprayed on kidney bean; adult mites; after 7 days
Protocol: (§1) Unless not mentioned otherwise, the test solutions were prepared as follows:
(§2) Containing as solvent: Dimethylformamide, 3 parts by weight; and as emulsifier: Polyoxyethylene alkyl phenyl ether, 1 part by weight. To prepare the test solution, 1 part by weight of an active compound is mixed with the above-mentioned amount of solvent containing the above-mentioned amount of emulsifier, and the mixture is diluted with water to the desired concentration.
50 to 100 adult two-spotted spider mites were inoculated onto the leaves of kidney beans at the two-true leaf stage, which plant had been cultivated in a pot having a diameter of 6 cm. After one day, test solution at the appropriate concentration was sprayed thereon in a sufficient amount using a spray gun. After the spraying, the plant pot was placed inside a greenhouse, and after 7 days, the acaricidal activity was calculated. An acaricidal activity of 100% means that all mites were killed, whereas an acaricidal activity of 0% means that no mite was killed.

[2] = system: Tobacco Cutworm (Spodoptera litura) Larvae; assay: Test against tobacco cutworm (Spodoptera litura) larvae, leaf immersion; details: 100 ppm; sweet potato leaves immersed; third-instar larvae; after 7 days
Protocol: as §1, §2
The leaves of sweet potato were immersed in the test solution at the appropriate concentration, and the leaves were dried in air. The leaves were then placed in a petri dish having a diameter of 9 cm, and ten third-instar larvae of tobacco cutworm were released therein. The petri dish was placed in a temperature-controlled chamber at 25° C. After 2 days and 4 days sweet potato leaves were additionally added. After 7 days, the number of dead larvae was counted to calculate the insecticidal activity. An insecticidal activity of 100% means that all larvae were killed, whereas an insecticidal activity of 0% means that no larva was killed. In the current test, the results of two petri dishes for each partition were averaged.

[3] = system: Cucurbit Leaf Beetle (Aulacophora femoralis); assay: Test against cucurbit leaf beetle (Aulacophora femoralis), leaf immersion; details: 100 ppm; cucumber leaves immersed; second-instar larvae; after 7 days
Protocol: as §1, §2
Cucumber leaves were immersed in the test solution at the appropriate concentration, and the leaves were dried in air. The leaves were then placed in a plastic cup containing sterilized black soil, and five second-instar larvae of cucurbit leaf beetle were released therein. The plastic cup was placed in a temperature-controlled chamber at 25° C. After 7 days, the number of dead larvae was counted, and thus the insecticidal activity was calculated. An insecticidal activity of 100% means that all beetles were killed, whereas an insecticidal activity of 0% means that no beetle was killed.

[4] = system: Tobacco Cutworm (Spodoptera litura) Larvae; assay: Test against tobacco cutworm larvae, root systemicity; details: 100 ppm; broccoli seedling roots dipped 3 days; second-instar larvae; after 4 days
Protocol: as §1, §2
The roots of seedling of broccoli at 1.2 leaf stage were dipped into the test solution at the appropriate concentration. After 3 days, the leaves were cut and placed in a petri dish having a diameter of 9 cm. And then five second-instar larvae of tobacco cutworm were released therein. The petri dish was placed in a temperature-controlled room at 25° C. After 4 days, the number of dead larvae was counted, to calculate the insecticidal activity. An insecticidal activity of 100% means that all larvae were killed, whereas an insecticidal activity of 0% means that no larva was killed.

Musca domestica = Musca domestica test; details: 100 ppm; sponge with sugar and compound solution; adults; after 2 days
Protocol: Solvent: dimethyl sulfoxide
To produce a suitable preparation of active compound, 10 mg of active compound are dissolved in 0.5 ml solvent, and the concentrate is diluted with water to the desired concentration. Prior to the assay, a piece of kitchen sponge is soaked with a mixture of sugar and compound solution and placed into a container. 10 adults (Musca domestica) are placed into the container and closed with a perforated lid. After 2 days mortality in % is determined. 100% means that all the flies have been killed; 0% means that none of the flies have been killed.

| SMILES | acaricidal activity rate [1] [%] | insecticidal activity [2] [%] | insecticidal activity [3] [%] | insecticidal activity [4] [%] | mortality (Musca domestica) [%] |
| --- | --- | --- | --- | --- | --- |
| Cc1cc(C2=NCC(c3cc(C(F)(F)F)cc(C(F)(F)F)c3)(C(F)(F)F)C2)ccc1CNC(=O)OC(C)(C)C (stereo not drawn) [2-548] | 100 | 100 | 100 |  |  |
| N#Cc1cc(C2=NCC(c3ccnc(Cl)c3)(C(F)(F)F)C2)ccc1-n1cncn1 (stereo not drawn) [1-484] | 100 |  | 100 |  |  |
| N#Cc1cc(C2=NCC(c3cc(C(F)(F)F)cc(C(F)(F)F)c3)(C(F)(F)F)C2)cnc1-n1cncn1 (stereo not drawn) [1-494] |  | 100 | 100 |  |  |
| N#Cc1cc(C2=NCC(c3cc(OC(F)F)cc(C(F)(F)F)c3)(C(F)(F)F)C2)ccc1-n1cncn1 (stereo not drawn) [1-497] |  | 100 | 100 | 100 |  |
| CC(=O)NCc1ccc(C2=NCC(c3cc(Cl)c(Cl)c(Cl)c3)(C(F)(F)F)C2)cc1 (stereo not drawn) [2-168] | 100 | 100 | 100 |  |  |
| N#Cc1cc(C2=NCC(c3cc(C(F)(F)F)cc(Cl)n3)(C(F)(F)F)C2)ccc1-n1cncn1 (stereo not drawn) [1-84] | 100 | 100 | 100 | 100 |  |
| FC(F)(F)C1(c2cc(Cl)c(Cl)c(Cl)c2)CN=C(c2ccc(-n3cncn3)cc2)C1 (stereo not drawn) [1-27] | 100 | 100 | 100 |  |  |
| FC(F)(F)C1(c2cc(Cl)c(Cl)c(Cl)c2)CN=C(c2ccc(-n3cncn3)nc2)C1 (stereo not drawn) [1-110] | 100 | 100 | 100 |  |  |
| CC(=O)NCc1ccc(C2=NCC(c3cc(C(F)(F)F)nc(C(F)(F)F)c3)(C(F)(F)F)C2)cc1Br (stereo not drawn) [2-2732] | 100 | 100 | 100 |  |  |
| CCC(=O)NCc1ccc(C2=NCC(c3cc(Cl)nc(Cl)c3)(C(F)(F)F)C2)cc1C(F)(F)F (stereo not drawn) [2-2151] | 100 | 100 | 100 |  |  |
| N#Cc1cc(C2=NCC(c3cc(Cl)cc(Cl)c3Cl)(C(F)(F)F)C2)ccc1-n1cncn1 (stereo not drawn) [1-488] | 100 | 100 | 100 |  |  |
| N#Cc1cc(C2=NCC(c3cc(Cl)cc(Cl)c3)(C(F)(F)Cl)C2)ccc1-n1cncn1 (stereo not drawn) [1-506] | 100 | 100 | 100 |  |  |
| N#Cc1cc(C2=NCC(c3cncc(C(F)(F)F)c3)(C(F)(F)F)C2)ccc1-n1cncn1 (stereo not drawn) [1-481] |  | 100 | 100 |  |  |
| N#Cc1cc(C2=NCC(c3cc(Br)c4c(c3)OC(F)(F)O4)(C(F)(F)F)C2)ccc1-n1cncn1 (stereo not drawn) [1-496] | 100 | 100 | 100 |  |  |
| CS(=O)(=O)CC(=O)NCc1ccc(C2=NCC(c3cc(C(F)(F)F)nc(C(F)(F)F)c3)(C(F)(F)F)C2)cc1Br (stereo not drawn) [2-2739] | 100 | 100 | 100 |  |  |
| N#Cc1cc(C2=NCC(c3ccnc(C(F)(F)C(F)(F)F)c3)(C(F)(F)F)C2)ccc1-n1cncn1 (stereo not drawn) [1-156] | 100 | 100 | 100 |  |  |
| CCC(=O)NCc1ccc(C2=NCC(c3cc(Cl)c(Cl)c(Cl)c3)(C(F)(F)F)C2)cc1 (stereo not drawn) [2-169] | 100 | 100 | 100 |  |  |
| FC(F)(F)C1(c2cc(Cl)c(Cl)c(Cl)c2)CN=C(c2ccc(-n3cncn3)c(Br)c2)C1 (stereo not drawn) [1-31] | 100 | 100 | 100 |  |  |
| N#Cc1cc(C2=NCC(c3ccc(F)c(C(F)(F)F)c3)(C(F)(F)F)C2)ccc1-n1cncn1 (stereo not drawn) [1-4] | 100 | 100 | 100 | 100 |  |

| SMILES | acaricidal activity rate [1] [%] | insecticidal activity [2] [%] | insecticidal activity [3] [%] | insecticidal activity [4] [%] | mortality (Musca domestica) [%] |
| --- | --- | --- | --- | --- | --- |
| CSCC(=O)NCc1ccc(C2=NCC(c3cc(C(F)(F)F)nc(C(F)(F)F)c3)(C(F)(F)F)C2)cc1Br (stereo not drawn) [2-2737] | 100 | 100 | 100 |  |  |
| O=C(CC(F)(F)F)NCc1ccc(C2=NCC(c3cc(C(F)(F)F)cc(C(F)(F)F)c3)(C(F)(F)F)C2)cc1 (stereo not drawn) [2-648] | 100 | 100 | 100 | 100 |  |
| N#Cc1cc(C2=NCC(c3cc(Cl)c(Br)c(Cl)c3)(C(F)(F)F)C2)ccc1-n1cncn1 (stereo not drawn) [1-15] | 100 | 100 | 100 |  |  |
| Cc1cc([N+](=O)[O-])cc(C2(C(F)(F)F)CN=C(c3ccc(-n4cncn4)c(C#N)c3)C2)c1 (stereo not drawn) [1-180] | 100 |  |  |  |  |
| N#Cc1cc(C2=NCC(c3cc(Cl)nc(C(F)(F)F)c3)(C(F)(F)F)C2)ccc1-n1cncn1 (stereo not drawn) [1-492] | 100 | 100 | 100 | 100 |  |
| Cc1cc(C2=NCC(c3cc(C(F)(F)F)cc(C(F)(F)F)c3)(C(F)(F)F)C2)ccc1CN (stereo not drawn) [2-547] |  | 100 |  |  |  |
| O=C(CC(F)(F)F)NCc1ccc(C2=NCC(c3cc(Cl)c(Cl)c(Cl)c3)(C(F)(F)F)C2)cc1 (stereo not drawn) [2-170] | 100 | 100 | 100 |  |  |
| Cc1ccc(C2(C(F)(F)F)CN=C(c3ccc(-n4cncn4)c(C#N)c3)C2)cc1[N+](=O)[O-] (stereo not drawn) [1-174] | 100 |  |  |  |  |
| CCC(=O)NCc1ccc(C2=NCC(c3cc(C(F)(F)F)cc(C(F)(F)F)c3)(C(F)(F)F)C2)cc1 (stereo not drawn) [2-647] | 100 | 100 | 100 | 100 |  |
| FC(F)(F)C1(c2cc(Cl)nc(Cl)c2)CN=C(c2cnc(-n3cncn3)c(Cl)c2)C1 (stereo not drawn) [1-490] |  | 100 | 100 |  |  |
| FC(F)(F)c1cc(C(F)(F)F)cc(C2(C(F)(F)F)CN=C(c3cnc(-n4cncn4)c(Cl)c3)C2)c1 (stereo not drawn) [1-491] |  | 100 | 100 |  |  |
| N#Cc1cc(C2=NCC(c3cccc(C(F)(F)F)c3F)(C(F)(F)F)C2)ccc1-n1cncn1 (stereo not drawn) [1-19] | 100 | 100 | 100 |  | 90 |
| FC(F)(F)c1cc(C2=NCC(c3cc(Cl)c(Cl)c(Cl)c3)(C(F)(F)F)C2)ccc1-n1cncn1 (stereo not drawn) [1-34] |  | 100 | 100 |  |  |
| N#Cc1cc(C2=NCC(c3cc(C(F)(F)F)ccc3F)(C(F)(F)F)C2)ccc1-n1cncn1 (stereo not drawn) [1-482] | 100 | 100 | 100 |  |  |
| CCC(=O)NCc1ccc(C2=NCC(c3cc(C(F)(F)F)nc(C(F)(F)F)c3)(C(F)(F)F)C2)cc1Br (stereo not drawn) [2-2733, N-(4-{3-[2,6-bis(trifluoromethyl)pyridin-4-yl]-3-(trifluoromethyl)-3,4-dihydro-2H-pyrrol-5-yl}-2-bromobenzyl)propanamide] | 100 | 100 | 100 |  |  |
| O=[N+]([O-])c1cc(C2=NCC(c3cc(Cl)c(Cl)c(Cl)c3)(C(F)(F)F)C2)ccc1-n1cncn1 (stereo not drawn) [1-35] | 100 | 100 | 100 |  |  |
| CCC(=O)NC(C)c1ccc(C2=NCC(c3cc(C(F)(F)F)nc(C(F)(F)F)c3)(C(F)(F)F)C2)cc1 (stereo not drawn) [2-2872] |  | 100 |  | 100 |  |
| Cc1cc(C2=NCC(c3cc(Cl)c(Cl)c(Cl)c3)(C(F)(F)F)C2)ccc1CN (stereo not drawn) [2-76] |  | 100 |  |  |  |
